According to US8802597B2, “Herbicidal pyrimidines” (E I du Pont de Nemours and Company, priority 2003, dated 2014):
Where two headings read alike, the source gives them in different places.

Experiments:
Assay in all cases: Test C pre/postemergence
Assay type in all cases: in vivo
[1] = tested on: pigweed (Amaranthus retroflexus); conditions: Amaranthus retroflexus; for pest or weed control at 31 g/ha: 31 g ai/ha; for pest or weed control at 62 g/ha: 62 g ai/ha; for pest or weed control at 125 g/ha: 125 g ai/ha; for pest or weed control at 250 g/ha: 250 g ai/ha
Summary of the method: (§1)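 Rating scale 0–100: 0 means no effect, 100 complete control; taken visually 12 to 14 days post-treatment versus controls. Pre- and postemergence greenhouse applications, postemergence at 1- to 4-leaf stage, non-phytotoxic solvent with surfactant as carrier.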

[2] = tested on: eastern black nightshade (Solanum ptycanthum); conditions: Solanum, pre-emergence, Preemergence, read-out: Plant response rating, Nightshade
Summary of the method: as §1

[3] = tested on: cocklebur (Xanthium strumarium); conditions: Xanthium strumarium; for pest or weed control at 31 g/ha: 31 g ai/ha; for pest or weed control at 125 g/ha: 125 g ai/ha; for pest or weed control at 250 g/ha: 250 g ai/ha
Summary of the method: as §1

soybean (Glycine max) = conditions: Glycine max; for plant injury at 31 g/ha: 31 g ai/ha; for plant injury at 62 g/ha: 62 g ai/ha; for plant injury at 125 g/ha: 125 g ai/ha; for plant injury at 250 g/ha: 250 g ai/ha
Summary of the method: as §1

[4] = tested on: goosegrass (Eleusine indica); conditions: Eleusine indica; for pest or weed control at 31 g/ha: 31 g ai/ha; for pest or weed control at 62 g/ha: 62 g ai/ha; for pest or weed control at 125 g/ha: 125 g ai/ha; for pest or weed control at 250 g/ha: 250 g ai/ha
Summary of the method: as §1

[5] = tested on: bermudagrass (Cynodon dactylon); conditions: Cynodon dactylon; for pest or weed control at 31 g/ha: 31 g ai/ha; for pest or weed control at 62 g/ha: 62 g ai/ha; for pest or weed control at 125 g/ha: 125 g ai/ha; for pest or weed control at 125 g/ha / pest or weed control at 250 g/ha: scale 0 to 100; for pest or weed control at 250 g/ha: 250 g ai/ha
Summary of the method: as §1

[6] = post-emergence, Postemergence, scale 0 to 100 (0 no effect, 100 complete control), read-out: Pigweed plant response rating
[7] = pre-emergence, Preemergence, scale 0 to 100, 0 no effect, 100 complete control, read-out: Plant response rating, Pigweed
[8] = pre-emergence, Preemergence, scale 0 to 100, read-out: Plant response rating, Pigweed
[9] = pre-emergence, Preemergence, scale 0 to 100, read-out: Plant response rating, Cocklebur
[10] = post-emergence, Postemergence, scale 0 to 100 (0 no effect, 100 complete control), read-out: Soybean plant response rating
[11] = pre-emergence, Preemergence, scale 0 to 100, 0 no effect, 100 complete control, read-out: Plant response rating, Soybean
[12] = pre-emergence, Preemergence, scale 0 to 100, read-out: Plant response rating, Soybean
[13] = post-emergence, Postemergence, scale 0 to 100 (0 no effect, 100 complete control), read-out: Goosegrass plant response rating
[14] = pre-emergence, Preemergence, scale 0 to 100, 0 no effect, 100 complete control, read-out: Plant response rating, Goosegrass
[15] = pre-emergence, Preemergence, scale 0 to 100, read-out: Plant response rating, Goosegrass
[16] = post-emergence, Postemergence, read-out: Plant response rating, Bermudagrass
[17] = pre-emergence, Preemergence, scale 0 to 100, 0 no effect, 100 complete control, read-out: Plant response rating, Bermudagrass
[18] = pre-emergence, Preemergence, read-out: Plant response rating, Bermudagrass

Structure (SMILES): COC(=O)c1nc(C2CC2)nc(N)c1Br [Compound 2, methyl 6-amino-5-bromo-2-cyclopropyl-4-pyrimidinecarboxylate]
- pest or weed control at 31 g/ha ([1]; post-emergence, Postemergence, read-out: Plant response rating (scale of 0 to 100), Pigweed): 65%
- pest or weed control at 62 g/ha [1, 6]: 80%
- pest or weed control at 125 g/ha [1, 6]: 95%
- pest or weed control at 250 g/ha ([1]; post-emergence, Postemergence, scale 0 to 100, read-out: Plant response rating, Pigweed): 100%
- pest or weed control at 31 g/ha [1, 7]: 90%
- pest or weed control at 62 g/ha [1, 7]: 95%
- pest or weed control at 125 g/ha [1, 8]: 95%
- pest or weed control at 250 g/ha [1, 8]: 100%
- pest or weed control at 31 g/ha ([2]; 31 g ai/ha, scale 0 to 100, 0 no effect, 100 complete control): 0%
- pest or weed control at 62 g/ha ([2]; 62 g ai/ha, scale 0 to 100, 0 no effect, 100 complete control): 20%
- pest or weed control at 125 g/ha ([2]; 125 g ai/ha, scale 0 to 100): 100%
- pest or weed control at 250 g/ha ([2]; 250 g ai/ha, scale 0 to 100): 100%
- pest or weed control at 31 g/ha ([3]; post-emergence, Postemergence, read-out: Plant response rating (scale of 0 to 100), Cocklebur): 65%
- pest or weed control at 62 g/ha ([3]; post-emergence, Postemergence, 62 g ai/ha, scale 0 to 100 (0 no effect, 100 complete control), read-out: Cocklebur plant response rating): 75%
- pest or weed control at 125 g/ha ([3]; post-emergence, Postemergence, scale 0 to 100 (0 no effect, 100 complete control), read-out: Cocklebur plant response rating): 85%
- pest or weed control at 250 g/ha ([3]; post-emergence, Postemergence, scale 0 to 100, read-out: Plant response rating, Cocklebur): 85%
- pest or weed control at 31 g/ha ([3]; pre-emergence, Preemergence, scale 0 to 100, 0 no effect, 100 complete control, read-out: Plant response rating, Cocklebur): 60%
- pest or weed control at 125 g/ha [3, 9]: 80%
- pest or weed control at 250 g/ha [3, 9]: 100%
- plant injury at 31 g/ha (soybean (Glycine max); post-emergence, Postemergence, read-out: Plant response rating (scale of 0 to 100), Soybean): 100%
- plant injury at 62 g/ha (soybean (Glycine max); [10]): 100%
- plant injury at 125 g/ha (soybean (Glycine max); [10]): 100%
- plant injury at 250 g/ha (soybean (Glycine max); post-emergence, Postemergence, scale 0 to 100, read-out: Plant response rating, Soybean): 100%
- plant injury at 31 g/ha (soybean (Glycine max); [11]): 15%
- plant injury at 62 g/ha (soybean (Glycine max); [11]): 75%
- plant injury at 125 g/ha (soybean (Glycine max); [12]): 90%
- plant injury at 250 g/ha (soybean (Glycine max); [12]): 100%
- pest or weed control at 31 g/ha ([4]; post-emergence, Postemergence, read-out: Plant response rating (scale of 0 to 100), Goosegrass): 0%
- pest or weed control at 62 g/ha [4, 13]: 0%
- pest or weed control at 125 g/ha [4, 13]: 0%
- pest or weed control at 250 g/ha ([4]; post-emergence, Postemergence, scale 0 to 100, read-out: Plant response rating, Goosegrass): 45%
- pest or weed control at 31 g/ha [4, 14]: 0%
- pest or weed control at 62 g/ha [4, 14]: 0%
- pest or weed control at 125 g/ha [4, 15]: 0%
- pest or weed control at 250 g/ha [4, 15]: 60%
- pest or weed control at 31 g/ha ([5]; post-emergence, Postemergence, read-out: Plant response rating (scale of 0 to 100), Bermudagrass): 15%
- pest or weed control at 62 g/ha ([5]; post-emergence, Postemergence, scale 0 to 100 (0 no effect, 100 complete control), read-out: Bermudagrass plant response rating): 60%
- pest or weed control at 125 g/ha [5, 16]: 70%
- pest or weed control at 250 g/ha [5, 16]: 80%
- pest or weed control at 31 g/ha [5, 17]: 0%
- pest or weed control at 62 g/ha [5, 17]: 0%
- pest or weed control at 125 g/ha [5, 18]: 0%
- pest or weed control at 250 g/ha [5, 18]: 0%
